System: U87MG GBM cells
Assay: Xenograft GBM mouse model
Assay type: in vivo
Details: TMZ alone, 7.5 mg/kg i.p. every other day
Experimental: Effect of αCT1-NP in a xenograft GBM mouse model. To assess the in vivo safety and efficacy of αCT1-NPs, a mouse xenograft model of GBM was employed U87MG GBM cells were cultured and 1×10^6 cells were mixed with 100 μL of Matrigel® Matrix and subcutaneously injected into the flanks of SCID/beige anesthetized mice using 23 gauge needles. After 8 days, mice were divided into 2 groups: (i) TMZ alone, and (ii) TMZ+αCT1 particles. The treatment regimen was as follows: TMZ (7.5 mg/kg) was administered by intraperitoneal injection with an insulin syringe every other day starting on day 8 for both groups 1 and 2 mice. αCT1 particles were reconstituted in 1×PBS from −80° C. storage and 100 uL aliquots were prepared and stored at −20° C. The concentration of αCT1 delivered in 1 dose of particles (100 uL) was approximately 8 μM at 1.2 mg particles/kg of mouse body weight. αCT1 particles were delivered at the tumor growth site every other day starting on day 10 for group 2 mice using insulin syringes. Group 2 mice received a total of 6 injections of particles during the course of treatment. This treatment regimen continued for 13 days. Tumor sizes were measured every other day using a caliper. Tumor volume was calculated ((length×width2)/2).

Question: `Cn1nnc2c(C(N)=O)ncn2c1=O` [TMZ, temozolomide] was tested. Which tumor volume did it give?
Answer: no effect
